The term IC50 denotes the midpoint of a concentration-inhibition curve.

For the assay, the target named is T1, phosphorylated c-MET (Homo sapiens, UniProt P08581).
T1 construct: endogenous in cells; host or cells: MKN45
The assay can be described thus: c-MET cell mechanistic assay (phosphorylated c-MET in MKN45 cells). Format: cell-based. To be noted: MKN45 cell line, four hours incubation, phosphorylated c-MET levels, at least duplicate experiments; read-out: Met mech IC50. As to the method: The cellular activity of the compounds of the present invention may be determined by the following procedure. MKN45 cells were plated in Falcon 3072 96-well plates in growth media (RPMI, 10% FBS, 1% L-glutamine) at a density of 5000 cells/well and incubated at 37° C., 5% CO2 overnight. The following day, one-tenth volume of a 10× concentration of compounds was added to the wells in a 6-point dilution series. The dilutions series was composed of an initial 1:5 dilution in DMSO, followed by a 1:10 dilution in growth media, for a final DMSO concentration on cells of 0.5%. Control wells were treated with 0.5% DMSO. The typical range of dilution was 10 μM to 3 nM. Once compound was added to the cells, plates were incubated for four hours at 37° C., 5% CO2. Plates were then washed in PBS, and lysed in triton-based lysis buffer. Lysates were transferred to a precoated capture plate made by Biosource (Cat # KH00281). The phosphorylated c-MET levels were measured by incubating with a rabbit polyclonal antibody against phosphorylated c-MET ([pYpYpY1230/1234/1235]) followed by an anti-rabbit antibody conjugated to HRP. Signal was measured on a Wallac Victor plate reader at 450 nm. The DMSO signal of the control wells was defined as 100% and the percent of inhibition of phosphorylated c-Met was expressed as percent of control. IC50 values were determined from the percent of control data using a standard four-parameter model.
The IC50 values of exemplary compounds of the present invention determined in a c-MET cell mechanistic assay using the MKN45 cell line according to the procedures described herein in at least duplicate experiments are abbreviated as follows and are shown in Table 3: A, IC50≦0.1 μM; B, 0.1 μM<IC50≦1 μM; C, 1 μM<IC50≦10 μM; D, IC50>10 μM; ND, not determined. The Example # of Table 3 corresponds to the compound example number as illustrated in the Examples section.

T1 sequence (P08581 25-1390): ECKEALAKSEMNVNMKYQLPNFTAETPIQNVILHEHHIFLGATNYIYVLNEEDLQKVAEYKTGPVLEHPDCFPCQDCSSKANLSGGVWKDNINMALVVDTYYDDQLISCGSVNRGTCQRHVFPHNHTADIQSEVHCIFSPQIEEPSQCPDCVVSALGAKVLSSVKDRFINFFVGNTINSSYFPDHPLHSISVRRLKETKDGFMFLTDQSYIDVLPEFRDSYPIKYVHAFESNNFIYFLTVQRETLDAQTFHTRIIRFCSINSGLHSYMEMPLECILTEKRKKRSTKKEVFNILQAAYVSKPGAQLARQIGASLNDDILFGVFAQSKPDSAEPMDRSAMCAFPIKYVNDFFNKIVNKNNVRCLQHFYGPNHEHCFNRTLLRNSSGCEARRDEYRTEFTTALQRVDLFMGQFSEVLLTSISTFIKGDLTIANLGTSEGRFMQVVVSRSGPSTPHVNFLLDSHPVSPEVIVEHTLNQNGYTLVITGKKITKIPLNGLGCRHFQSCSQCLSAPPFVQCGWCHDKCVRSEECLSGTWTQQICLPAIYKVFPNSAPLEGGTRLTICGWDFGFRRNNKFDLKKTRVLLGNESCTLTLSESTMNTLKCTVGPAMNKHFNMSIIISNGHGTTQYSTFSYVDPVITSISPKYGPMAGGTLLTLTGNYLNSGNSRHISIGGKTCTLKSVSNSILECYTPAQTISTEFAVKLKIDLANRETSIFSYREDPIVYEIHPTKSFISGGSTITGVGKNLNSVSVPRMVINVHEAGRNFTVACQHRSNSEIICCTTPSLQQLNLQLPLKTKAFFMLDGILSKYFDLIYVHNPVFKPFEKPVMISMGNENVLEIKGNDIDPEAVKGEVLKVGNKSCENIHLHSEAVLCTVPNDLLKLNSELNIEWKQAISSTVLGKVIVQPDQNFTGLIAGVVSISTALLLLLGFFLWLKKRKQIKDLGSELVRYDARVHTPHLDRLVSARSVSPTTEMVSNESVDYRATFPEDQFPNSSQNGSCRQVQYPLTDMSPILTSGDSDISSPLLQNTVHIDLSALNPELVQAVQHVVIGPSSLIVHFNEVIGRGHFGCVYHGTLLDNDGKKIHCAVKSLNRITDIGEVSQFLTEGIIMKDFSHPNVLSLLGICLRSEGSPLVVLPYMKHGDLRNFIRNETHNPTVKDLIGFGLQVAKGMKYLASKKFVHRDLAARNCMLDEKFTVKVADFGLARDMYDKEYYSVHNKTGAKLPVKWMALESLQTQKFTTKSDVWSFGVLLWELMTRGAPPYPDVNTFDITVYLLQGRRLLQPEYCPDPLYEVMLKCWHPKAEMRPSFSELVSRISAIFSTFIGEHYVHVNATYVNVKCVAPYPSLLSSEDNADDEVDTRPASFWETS

Take “3-[1-(2,6-Dichloro-3-fluorophenyl)ethyl]-5-[1-(1-methanesulfonylpiperidin-4-yl)-1H-pyrazol-4-yl]-1H-pyrrolo[2,3-b]pyridine [Example 37]”: the IC50 was in the range of 100 to 1000 nM.

Regarding `CNC(=O)N1CC=C(c2cnc3[nH]cc(C(C)c4c(Cl)ccc(F)c4Cl)c3c2)CC1` (stereo not shown) [Example 34, 4-{3-[1-(2,6-Dichloro-3-fluorophenyl)ethyl]-1H-pyrrolo[2,3-b]pyridin-5-yl}-3,6-dihydro-2H-pyridine-1-carboxylic acid methylamide], the IC50 lay within 100 to 1000 nM.

Take `COC(=O)N1CC=C(c2cnc3[nH]cc(C(C)c4c(Cl)ccc(F)c4Cl)c3c2)CC1` (stereo not shown) [Example 35, 4-{3-[1-(2,6-Dichloro-3-fluorophenyl)-ethyl]-1H-pyrrolo[2,3-b]pyridin-5-yl}-3,6-dihydro-2H-pyridine-1-carboxylic acid methyl ester]: the IC50 lay within 100 to 1000 nM.

Turning to `CC(c1c(Cl)ccc(F)c1Cl)c1c[nH]c2ncc(C3=CCN(C(=O)C(O)C(F)(F)F)CC3)cc12` (stereo not shown) [Example 44], the concentration for half-maximal inhibition (IC50) was in the range of 100 to 1000 nM.

`CC(c1c(Cl)ccc(F)c1Cl)c1c[nH]c2ncc(-c3cnn(C4CCN(S(N)(=O)=O)CC4)c3)cc12` (stereo not shown) [Example 52, 4-(4-{3-[1-(2,6-Dichloro-3-fluorophenyl)ethyl]-1H-pyrrolo[2,3-b]pyridin-5-yl}-pyrazol-1-yl)-piperidine-1-sulfonic acid amide]: the IC50 lay within 100 to 1000 nM.

On to `CC(c1c(Cl)ccc(F)c1Cl)c1c[nH]c2ncc(-c3cn(C)cn3)cc12` (stereo not shown) [Example 54, 3-[1-(2,6-Dichloro-3-fluorophenyl)ethyl]-5-(1-methyl-1H-imidazol-4-yl)-1H-pyrrolo[2,3-b]pyridine], for which the IC50 is 100 to 1000 nM.

On to `C[C@H](c1c(Cl)ccc(F)c1Cl)c1c[nH]c2ncc(C3=CCCNC3)cc12` [Example 66, 3-[(S)-1-(2,6-Dichloro-3-fluorophenyl)ethyl]-5-(1,2,5,6-tetrahydropyridin-3-yl)-1H-pyrrolo[2,3-b]pyridine], for which the IC50 lay within 100 to 1000 nM.

With `C[C@H](c1c(Cl)ccc(F)c1Cl)c1c[nH]c2ncc(-c3ccncc3)cc12` [Example 68, 3-[(S)-1-(2,6-Dichloro-3-fluorophenyl)ethyl]-5-pyridin-4-yl-1H-pyrrolo[2,3-b]pyridine], the IC50 fell in the range of 100 to 1000 nM.

With `C[C@H](c1c(Cl)ccc(F)c1Cl)c1c[nH]c2ncc(-c3cnn(CC(=O)O)c3)cc12` [Example 74, (4-{3-[(S)-1-(2,6-Dichloro-3-fluorophenyl)ethyl]-1H-pyrrolo[2,3-b]pyridin-5-yl}-pyrazol-1-yl)-acetic acid], the IC50 lay in the range of 100 to 1000 nM.

In the case of `C[C@@H](c1c(Cl)ccc(F)c1Cl)c1c[nH]c2ncc(-c3cnn(C4CCN(C=O)CC4)c3)cc12` [Example 82, 4-(4-{3-[(R)-1-(2,6-Dichloro-3-fluorophenyl)ethyl]-1H-pyrrolo[2,3-b]-pyridin-5-yl}-pyrazol-1-yl)-piperidine-1-carbaldehyde], the IC50 is 100 to 1000 nM.

For the molecule `C[C@@H](c1c(Cl)ccc(F)c1Cl)c1c[nH]c2ncc(-c3cnn(C4CCN(S(C)(=O)=O)CC4)c3)cc12` [Example 83, 3-[(R)-1-(2,6-Dichloro-3-fluorophenyl)ethyl]-5-[1-(1-methane-sulfonylpiperidin-4-yl)-1H-pyrazol-4-yl]-1H-pyrrolo[2,3-b]pyridine], the IC50 was 1000 to 10000 nM.

Turning to `C[C@@H](c1c(Cl)ccc(F)c1Cl)c1c[nH]c2ncc(-c3cnn(C4CCN(C(N)=O)CC4)c3)cc12` [Example 84, 4-(4-{3-[(R)-1-(2,6-Dichloro-3-fluorophenyl)ethyl]-1H-pyrrolo[2,3-b]-pyridin-5-yl}-pyrazol-1-yl)-piperidine-1-carboxamide], the 50% inhibitory concentration (IC50) lay within 1000 to 10000 nM.

On to `C[C@H](c1c(Cl)ccc(F)c1Cl)c1c[nH]c2ncc(-c3cnn([C@H]4CC[C@H](O)CC4)c3)cc12` [Example 86, trans-4-(4-{3-[(1S)-1-(2,6-dichloro-3-fluorophenyl)ethyl]-1H-pyrrolo[2,3-b]pyridin-5-yl}-1H-pyrazol-1-yl)cyclohexanol], for which the IC50 is at most 100 nM.

For the origin of these results see patent publication US8592448B2 (OSI Pharmaceuticals, LLC, priority 2008, dated 2013).
